Drawing on patent US12590086B2, “3-((1H-pyrazol-4-yl)methyl)-6′-(phenyl)-2H-(1,2′-bipyridin)-2-one derivatives and related compounds as GPR139 antagonists for use in a method of treatment of e.g. depression” (TAKEDA PHARMACEUTICAL COMPANY LIMITED, priority 2020, dated 2026), this text covers inhibition for 15 compounds.

In this assay the target is T1, human GPR139 (Homo sapiens, UniProt Q6DWJ6).
T1 construct: expressed in transfected cells; host or cells: CHO-TREx (Life Technologies) cells, expression induced with doxycycline
T1 sequence (Q6DWJ6 1-353): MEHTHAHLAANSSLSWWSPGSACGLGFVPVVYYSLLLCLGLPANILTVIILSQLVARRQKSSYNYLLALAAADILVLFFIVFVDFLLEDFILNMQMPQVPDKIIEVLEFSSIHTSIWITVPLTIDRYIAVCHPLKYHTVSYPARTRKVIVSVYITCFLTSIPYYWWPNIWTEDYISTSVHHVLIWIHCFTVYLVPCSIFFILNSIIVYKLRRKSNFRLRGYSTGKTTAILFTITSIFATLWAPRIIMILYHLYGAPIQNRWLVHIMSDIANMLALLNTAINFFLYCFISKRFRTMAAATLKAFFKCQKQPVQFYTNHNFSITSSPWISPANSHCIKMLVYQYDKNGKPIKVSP
Put plainly: Inhibition rate of the amount of IP1 in GPR139-expressed CHO cells (inverse agonist assay, IP-ONE HTRF). It is filed as cell-based. As to the method: Measurement of the inhibition rate of the amount of IP1 in 30 µM of the compound of Reference Example 1 in GPR139-expressed CHO cells
Changes in the amount of IP1 in GPR139-expressed CHO cells were measured in order to evaluate the activity of the compound via GPR139. GPR139 is a Gq-coupled receptor which varies intracellular calcium (Liu C et al., Mol Pharmacol. 2015 November; 88(5):911-25), so the amount of IP1, which is a stable metabolite of the second messenger IP3, changes due to activity regulation of GPR139. GPR139 is considered to be […] when expressed recombinantly in mammal cells, so a compound having a GPR139 receptor inverse agonist action is expected to reduce the amount of IP1 production.
The measurement of IP1 was made using an IP-ONE HTFR assay kit (cis-bio) and CHO-TREx (Life Technologies) cells stably transfected with GPR139. The CHO-TREx cells expressed human GPR139 with a tetracycline-inducing element. The cells were cultured in a medium containing F12K and 10% tetracycline-free FBS, and the expression of human GPR139 was induced over the course of 17 hours under conditions of 37° C. and 5% CO2 in the presence of 2 μg/mL of doxycycline (Clontech, 631311) in the growth medium on the day before assay. On the day of the test, after the cells were washed with 10 mL of PBS, the cells were detached with TrypLE Express (Life Technologies) and centrifuged at 1,000 rpm to form pellets, and a cell suspension was then prepared using a stimulation buffer (cis-bio, included in the IP-ONE HTRF assay kit).
The compound was diluted with the stimulation buffer, and 4 μL was added to a 384-well white assay plate (Greiner). The cell suspension was added so that there were 2000 cells per well, and the assay plate was left to stand for 40 minutes at 37° C. Equal amounts of iP1-d2 and Ab-Crp solutions (both available from cis-bio, included in the IP-ONE HTRF assay kit) prepared with a lysis buffer (cis-bio, included in the IP-ONE HTRF assay kit) were mixed, and 4 μL was added to the assay plate and left to stand for one hour at room temperature. After the fluorescence strengths of two wavelengths were measured by the HTRF settings of Envision (PerkinElmer), the value of Ratio=((Signal 665 nm)/(Signal 615 nm))×10000 was calculated.
Measurement of the Inhibition Rate of the Amount of IP1 in GPR139-Expressed CHO Cells (Inverse Agonist Assay)
The activities of the compounds of Examples 20 to 33 were expressed as relative values in Table 2 by measuring the inhibition rate of the amount of IP1 with the same method as in Test Example 1 and defining the inhibition rate of the amount of IP1 of the compound of Reference Example 1 in Test Example 1 as 100%.
(TR-FRET usually uses a lanthanide donor and a delayed reading to cut background.)

Setting [1] is: relative value, inhibition rate of Reference Example 1 in Test Example 1 defined as 100%, GPR139-expressed CHO cells, read-out: IP1 Inhibition Rate at 30 μM.

Read-outs that look alike come from different tables or passages of the source.

On to `CCn1cc(Cc2c(C)ccn(-c3cc(N4CCO[C@H](C)C4)cc(C4CC4)c3F)c2=O)cn1` [Example 33, 1-{3-cyclopropyl-2-fluoro-5-[(2R)-2-methylmorpholin-4-yl]phenyl}-3-[(1-ethyl-1H-pyrazol-4-yl)methyl]-4-methylpyridin-2(1H)-one], for which the inhibition at 30 µM under setting [1] amounted to 96%.
Regarding `CCn1cc(Cc2cccn(-c3cc(N4CCO[C@H](C)C4)cc(OC(F)(F)F)c3F)c2=O)cn1` [Example 24, 3-[(1-ethyl-1H-pyrazol-4-yl)methyl]-1-{2-fluoro-5-[(2R)-2-methylmorpholin-4-yl]-3-(trifluoromethoxy)phenyl}pyridin-2(1H)-one], the inhibition at 30 µM under setting [1] was determined as 98%.
In the case of `CCn1cc(Cc2cc(C)cn(-c3cc(N4CCO[C@H](C)C4)cc(C4CC4)c3F)c2=O)cn1` [Example 32, 1-{3-cyclopropyl-2-fluoro-5-[(2R)-2-methylmorpholin-4-yl]phenyl}-3-[(1-ethyl-1H-pyrazol-4-yl)methyl]-5-methylpyridin-2(1H)-one], under setting [1], the inhibition at 30 µM stood at 99%.
Take `CCn1cc(Cc2cccn(-c3cc(N4CCC(F)(F)CC4)cc(C4CC4(F)F)c3F)c2=O)cn1` (stereo not drawn) [Example 30, 1-[3-(2,2-difluorocyclopropyl)-5-(4,4-difluoropiperidin-1-yl)-2-fluorophenyl]-3-[(1-ethyl-1H-pyrazol-4-yl)methyl]pyridin-2(1H)-one]: the inhibition at 30 µM under setting [1] was found to be 97%.
As for `CCn1cc(Cn2ccn(-c3cc(N4CCO[C@H](C)C4)cc(C(F)(F)F)c3F)c2=O)cn1` [Reference Example 1, 1-[(1-Ethyl-1H-pyrazole-4-yl)methyl]-3-{2-fluoro-5-[(2R)-2-methylmorpholine-4-yl]-3-(trifluoromethyl)phenyl}-1,3-dihydro-2H-imidazole-2-one, reference compound], the inhibition at 30 µM (30 μM compound, CHO-TREx cells expressing human GPR139, vehicle set to 0%, IP1 concentration 0 set to 100%, read-out: inhibition rate of the amount of IP1) was 84%.
As for `CCn1cc(Cc2ccc(C)n(-c3cc(C4CC4)cc(N4CCO[C@H](C)C4)c3)c2=O)cn1` [Example 29, 1-{3-cyclopropyl-5-[(2R)-2-methylmorpholin-4-yl]phenyl}-3-[(1-ethyl-1H-pyrazol-4-yl)methyl]-6-methylpyridin-2(1H)-one], the inhibition at 30 µM under setting [1] was 102%.
As to `CC(C)n1cc(Cc2cccn(-c3cc(N4CCO[C@H](C)C4)cc(C4CC4)c3F)c2=O)cn1` [Example 25, 1-{3-cyclopropyl-2-fluoro-5-[(2R)-2-methylmorpholin-4-yl]phenyl}-3-{[1-(propan-2-yl)-1H-pyrazol-4-yl]methyl}pyridin-2(1H)-one], the inhibition at 30 µM under setting [1] stood at 95%.
Still for that read-out and setting: as for `CCn1cc(Cc2ccc(F)n(-c3cc(C4CC4)cc(N4CCO[C@H](C)C4)c3)c2=O)cn1` [Example 31, 1-{3-cyclopropyl-5-[(2R)-2-methylmorpholin-4-yl]phenyl}-3-[(1-ethyl-1H-pyrazol-4-yl)methyl]-6-fluoropyridin-2(1H)-one], the figure is 100%; as for `CCn1cc(Cc2cccn(-c3cc(N4CCOC(C)(C)C4)cc(C4CC4)c3F)c2=O)cn1` [Example 21, 1-[3-cyclopropyl-5-(2,2-dimethylmorpholin-4-yl)-2-fluorophenyl]-3-[(1-ethyl-1H-pyrazol-4-yl)methyl]pyridin-2(1H)-one], 96%; as for `CCn1cc(Cc2cccn(-c3cc(OC4CCOCC4)cc(C4CC4)c3F)c2=O)cn1` [Example 22, 1-{3-cyclopropyl-2-fluoro-5-[(oxan-4-yl)oxy]phenyl}-3-[(1-ethyl-1H-pyrazol-4-yl)methyl]pyridin-2(1H)-one], 98%.
On the same count and under the same terms, the figure for `CCn1cc(Cc2cccn(-c3cc(N4CCO[C@H](C)C4)cc(C4CC4)c3F)c2=O)cn1` [Example 20, 1-{3-cyclopropyl-2-fluoro-5-[(2R)-2-methylmorpholin-4-yl]phenyl}-3-[(1-ethyl-1H-pyrazol-4-yl)methyl]pyridin-2(1H)-one] is 96%; for `CCn1cc(Cc2c(F)ccn(-c3cc(N4CCO[C@H](C)C4)cc(C4CC4)c3F)c2=O)cn1` [Example 26, 1-{3-cyclopropyl-2-fluoro-5-[(2R)-2-methylmorpholin-4-yl]phenyl}-3-[(1-ethyl-1H-pyrazol-4-yl)methyl]-4-fluoropyridin-2(1H)-one] it is 97%; for `CCn1cc(Cc2cccn(-c3cc(N4CCO[C@H](C)C4)cc(C(C)C)c3F)c2=O)cn1` [Example 27, 3-[(1-ethyl-1H-pyrazol-4-yl)methyl]-1-{2-fluoro-5-[(2R)-2-methylmorpholin-4-yl]-3-(propan-2-yl)phenyl}pyridin-2(1H)-one] it is 96%.
As to `CCn1cc(Cc2cccn(-c3cc(OC4CCOCC4)cc(Br)c3F)c2=O)cn1` [Example 23, 1-{3-bromo-2-fluoro-5-[(oxan-4-yl)oxy]phenyl}-3-[(1-ethyl-1H-pyrazol-4-yl)methyl]pyridin-2(1H)-one], the inhibition at 30 µM under setting [1] was determined as 100%.
Same read-out and setting: as for `CCn1cc(Cc2cccn(-c3cc(N4CCO[C@H](C)C4)cc(CC(F)(F)F)c3F)c2=O)cn1` [Example 28, 3-[(1-ethyl-1H-pyrazol-4-yl)methyl]-1-{2-fluoro-5-[(2R)-2-methylmorpholin-4-yl]-3-(2,2,2-trifluoroethyl)phenyl}pyridin-2(1H)-one], the figure is 100%.

For orientation: inhibition means the relative decrease from the control value, in per cent.
